Experimental data published in patent US7045343B2, “Sterilization indicator test packs” (3M Innovative Properties Company, priority 1998, dated 2006).

What was measured:
[1] = system: enzyme associated with Bacillus stearothermophilus spores; experiment: Rapid enzyme fluorescence readout of indicators after hydrogen peroxide plasma sterilization; type: biochemical; settings: for FLUORESCENCE - PERCENT POSITIVE 1 HR / FLUORESCENCE - PERCENT POSITIVE 2 HR / FLUORESCENCE - PERCENT POSITIVE 3 HR / FLUORESCENCE - PERCENT POSITIVE 4 HR / FLUORESCENCE - PERCENT POSITIVE 5 HR: 1–22 min diffusion;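 for FLUORESCENCE - PERCENT POSITIVE 5 HR: percent of growth-positive indicators that were also fluorescence-positive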
Outline: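 Indicators with a TYVEK closure held spores coated with various chemicals and were exposed to hydrogen peroxide plasma at 45–55 °C: 6–7 mg/ml chamber peroxide, diffusing 1–22 min at 6–10 Torr. Enzyme fluorescence was read hourly for 5 h at 60 °C. Growth was scored visually as a purple-to-yellow change after 168 h.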

[2] = system: Bacillus stearothermophilus spores; experiment: Spore outgrowth (color change) of indicators after hydrogen peroxide plasma sterilization; type: cell-based; settings: 1–22 min diffusion
Procedure: Sterilization indicators for Examples 6–9 were prepared as described above with the exception that closure member 22 of the sterilization indicator was constructed of TYVEK™ high-density polyethylene fiber material, commercially available from E.I. du Pont de Nemours and Co., Wilmington, Del.
(§1) Sterilization indicators were made as described above with spores that had been coated with each of the chemicals and concentrations listed in Table 6. The indicators were placed in instrument trays and exposed to a hydrogen peroxide plasma sterilization procedure at 45–55° C. in a STERRAD™ 100SI GMP Sterilizer, obtained from Advanced Sterilization Products Co., Irvine, Calif. During the sterilization procedure a vacuum was drawn in the sterilization chamber for 5–6 minutes until the pressure was reduced to 300 mTorr. A 1.8 ml aliquot of an aqueous solution of 58–60% hydrogen peroxide was then injected into the sterilization chamber over a period of about 6 minutes, yielding an empty chamber concentration of […] hydrogen peroxide, and hydrogen peroxide vapor was allowed to diffuse throughout the chamber for 1–22 minutes at 6–10 Torr. A vacuum was then drawn, reducing the pressure to 500 mTorr and removing all detectable hydrogen peroxide vapor from the chamber.
After exposure to the sterilization procedure, the indicators were removed from the sterilizer and the inner containers containing the enzyme substrate and nutrient medium were crushed. The indicators were then incubated at 60° C. and examined for fluorescence every hour for 5 hours using a 3M™ ATTEST™ Model 190 Rapid Autoreader, commercially available from 3M Company, St. Paul, Minn. Additionally, spore growth, as indicated by a color change from purple to yellow, was determined visually after 168 hours of incubation.
The number of growth positive indicators detected after 168 hours of incubation is recorded in Table 6.
as §1, with “7.” for “6.”
as §1, with “8.” for “6.”, “chamber. […]” for “chamber.”

## Decaglyceryl Decaoleate
[1]; 1–3 hours after exposure
  accuracy of sterilization indicators compared to indicators made with untreated spores: improved
[1]; 2–3 hours after exposure
  accuracy of sterilization indicators compared to indicators made with untreated spores: improved
[1]; 2–3 hours after exposure, concentrations of 5–100 mg/ml
  accuracy of sterilization indicators compared to indicators made with untreated spores: improved
[1]; Example 6, 10 mg/ml coating
  FLUORESCENCE - PERCENT POSITIVE 1 HR: 83.7%
  FLUORESCENCE - PERCENT POSITIVE 2 HR: 100%
  FLUORESCENCE - PERCENT POSITIVE 3 HR: 100%
  FLUORESCENCE - PERCENT POSITIVE 4 HR: 100%
  FLUORESCENCE - PERCENT POSITIVE 5 HR: 100%
[1]; Example 7, 10 mg/ml coating
  FLUORESCENCE - PERCENT POSITIVE 1 HR: 83.7%
  FLUORESCENCE - PERCENT POSITIVE 2 HR: 100%
  FLUORESCENCE - PERCENT POSITIVE 3 HR: 100%
  FLUORESCENCE - PERCENT POSITIVE 4 HR: 100%
  FLUORESCENCE - PERCENT POSITIVE 5 HR: 100%
[1]; Example 9, 5 mg/ml coating
  FLUORESCENCE - PERCENT POSITIVE 1 HR: 65.7%
  FLUORESCENCE - PERCENT POSITIVE 2 HR: 100%
  FLUORESCENCE - PERCENT POSITIVE 3 HR: 100%
  FLUORESCENCE - PERCENT POSITIVE 4 HR: 100%
  FLUORESCENCE - PERCENT POSITIVE 5 HR: 100%
[1]; Example 9, 7.5 mg/ml coating
  FLUORESCENCE - PERCENT POSITIVE 1 HR: 83.5%
  FLUORESCENCE - PERCENT POSITIVE 2 HR: 100%
  FLUORESCENCE - PERCENT POSITIVE 3 HR: 100%
  FLUORESCENCE - PERCENT POSITIVE 4 HR: 100%
  FLUORESCENCE - PERCENT POSITIVE 5 HR: 100%
[1]; Example 9, 10 mg/ml coating
  FLUORESCENCE - PERCENT POSITIVE 1 HR: 83.7%
  FLUORESCENCE - PERCENT POSITIVE 2 HR: 100%
  FLUORESCENCE - PERCENT POSITIVE 3 HR: 100%
  FLUORESCENCE - PERCENT POSITIVE 4 HR: 100%
  FLUORESCENCE - PERCENT POSITIVE 5 HR: 100%
[1]; Example 9, 50 mg/ml coating
  FLUORESCENCE - PERCENT POSITIVE 1 HR: 85.0%
  FLUORESCENCE - PERCENT POSITIVE 2 HR: 90.2%
  FLUORESCENCE - PERCENT POSITIVE 3 HR: 100%
  FLUORESCENCE - PERCENT POSITIVE 4 HR: 100%
  FLUORESCENCE - PERCENT POSITIVE 5 HR: 100%
[1]; Example 9, 100 mg/ml coating
  FLUORESCENCE - PERCENT POSITIVE 1 HR: 73.3%
  FLUORESCENCE - PERCENT POSITIVE 2 HR: 86.7%
  FLUORESCENCE - PERCENT POSITIVE 3 HR: 100%
  FLUORESCENCE - PERCENT POSITIVE 4 HR: 100%
  FLUORESCENCE - PERCENT POSITIVE 5 HR: 100%
[2]; Example 6, 10 mg/ml coating
  NO. GROWTH POSITIVE 168 HR: 49
[2]; Example 7, 10 mg/ml coating
  NO. GROWTH POSITIVE 168 HR: 49
[2]; Example 9, 5 mg/ml coating
  NO. GROWTH POSITIVE 168 HR: 35
[2]; Example 9, 7.5 mg/ml coating
  NO. GROWTH POSITIVE 168 HR: 35
[2]; Example 9, 10 mg/ml coating
  NO. GROWTH POSITIVE 168 HR: 49
[2]; Example 9, 50 mg/ml coating
  NO. GROWTH POSITIVE 168 HR: 21
[2]; Example 9, 100 mg/ml coating
  NO. GROWTH POSITIVE 168 HR: 30

## Decaglyceryl Monostearate
[1]; Example 7, 50 mg/ml coating
  FLUORESCENCE - PERCENT POSITIVE 1 HR: 64.4%
  FLUORESCENCE - PERCENT POSITIVE 2 HR: 83.0%
  FLUORESCENCE - PERCENT POSITIVE 3 HR: 89.8%
  FLUORESCENCE - PERCENT POSITIVE 4 HR: 91.3%
  FLUORESCENCE - PERCENT POSITIVE 5 HR: 91.3%
[2]; Example 7, 50 mg/ml coating
  NO. GROWTH POSITIVE 168 HR: 59
